Test results reported in publication PMC6222787, “Anti-Inflammatory Activities of Compounds Isolated from the Rhizome of Anemarrhena asphodeloides” (Molecules : A Journal of Synthetic Chemistry and Natural …, 2018).
Several values for one entry are separate records, joined by “and”; a condition that tells them apart may be missing. Equal entries are not always repeated. Where two headings read alike, the source gives them in different places.

Key:
[1] = in vitro; conditions: mouse, % Cell Viability
Description: (§6) The N9 microglial cell line was obtained from China Cell Line Bank. The cells were grown at 37 °C in IMDM supplemented with 10% heat-inactivated FBS under a humidified atmosphere of 5% CO2. In this experiment, cells were allowed to acclimate for 24 h before treatments.
(§7) Cell viability was evaluated by the MTT reduction assay [36]. Cells were seeded in 96-well plates at a density of 2 × 10^4 cells/well and allowed to grow for 24 h before treatments. Thereafter, 100 μL medium containing various concentrations (0–50 μM) of compounds were added and incubated for another 24 h. MTT was dissolved in DD water (5 mg/mL) and 10 μL were added to each well. After 4 h, the medium was removed and 100 μL DMSO were filled in each well. The optical density was measured at 490 nm on a Flexstation 3 (Molecular Devices, Silicon Valley, CA, USA).

[2] = tested on: LPS-induced NO production in N9 microglial cells; test: LPS-induced NO production (Griess assay); assay type: cell-based, mouse; conditions: mean ± S.E.M.; for Nitrite: control 4.60, LPS group 31.81 μM; for inhibition at 25 µM / inhibition at 50 µM: Mus musculus, N9, 24 h
Description: Figure 2 Inhibitory effects of TBIII (A) and t-HL (B) in LPS-stimulated N9 microglial cells. Cells were pretreated with different concentrations of TBIII and t-HL 1 h prior to the addition of LPS (100 ng/mL) and were further incubated for 24 h. NO production was determined by using the Griess reagent. IC50 values and curve fitting were determined using Graphpad Prism (GraphPad, Avenida, CA, USA).
Accumulation of nitrite, a metabolite of NO in the culture media, was measured by Griess assay as previously reported. Briefly, cells were stimulated with 100 ng/mL of LPS for 24 h in the presence of the test compounds (0–50 μM).

[3] = tested on: iNOS; test: iNOS expression by Western blot in LPS-stimulated N9 cells; assay type: cell-based, mouse; conditions: pretreated 1 h, LPS 100 ng/mL 24 h, dose-dependent
Description: Figure 3 Effects of TBIII (A) and t-HL (B) on the expression of iNOS induced by LPS in N9 microglial cells. The iNOS protein levels were analyzed by Western blot. Cells were treated with different concentrations of TBIII and t-HL for 1 h and then stimulated with LPS (100 ng/mL) for 24 h. The iNOS signal was normalized to the β-actin signal. Parthenolide (PAR, 10 μM) was used as a positive control. The data were obtained from three independent experiments and expressed as the means ± S.E.M. * p < 0.05, ** p < 0.01, *** p < 0.001 versus the LPS-treated group; ^### p < 0.001 versus the control group.
(§1) N9 cells were plated into 12-well plates (4 × 10^5 cells/well) and pretreated with different concentrations of TBIII and t-HL for 1 h, then stimulated by 100 ng/mL of LPS for 24 h. Nuclear and cytoplasmic proteins were obtained with nuclear and cytoplasmic protein extraction kit (Beyotime Biotechnology, Shanghai, China) according to the manufacturer′s protocol. Proteins were collected by SDS-PAGE Sample Loading Buffer (Yeasen, Shanghai, China) and heated at 99 °C for 10 min. Proteins in sample loading buffer were separated on 10% sodium dodecyl sulfate (SDS)-polyacrylamide gel electrophoresis (PAGE) and followed by transferring to nitrocellulose membranes (Whatman Protran, Dassel, Germany). […] The immunoreactive bands were quantified using the NIH Image J software (NIH, Bethesda, MD, USA).

[4] = tested on: Akt; test: LPS-induced activation of Akt (Western blot); assay type: cell-based, mouse; conditions: pretreated 1 h, LPS 100 ng/mL
Description: (§2) Figure 6 Effect of TBIII and t-HL on LPS-induced activation of Akt (A,C) and NF-κB (B,D) in N9 cells. Cells were treated with different concentrations of TBIII and t-HL for 1 h prior to stimulation with LPS (100 ng/mL). Nuclear and cytoplasmic proteins were obtained and analyzed by western blot. PAR (10 μM) was used as a positive control. The data shown represent the mean ± S.E.M of three independent experiments. * p < 0.05, ** p < 0.01, *** p < 0.001 versus the LPS-treated group; ^# p < 0.05, ^## p < 0.01, ^### p < 0.001 versus the control group.
as §1

[5] = tested on: IL-6; test: LPS-induced IL-6 mRNA expression (real-time PCR); assay type: cell-based, mouse; conditions: pretreated 1 h, LPS 100 ng/mL 4 h, dose-dependent
Description: (§3) Figure 4 Effects of TBIII (A) and t-HL (B) on LPS-induced mRNA expression of pro-inflammatory cytokines in N9 microglial cells. Cells were treated with different concentrations of TBIII and t-HL for 1 h and then stimulated with LPS (100 ng/mL) for 4 h. TNF-α and IL-6 mRNA levels were determined by real-time PCR analysis. […] The data were obtained from three independent experiments and expressed as the means ± […] < 0.001 versus the LPS-treated group; ^### p < 0.001 versus the control group. Total RNA was extracted from cells using Trizol reagent (Invitrogen, Carlsbad, CA, USA). Reverse transcription of RNA was performed with the Reverse Transcription System […] kit (Promega, Madison, WI, USA) according to the manufacturer's protocol. The complementary DNA (cDNA) was subsequently subjected to Real-Time PCR to quantify the transcripts of TNF-α and IL-6 using SYBR® Green Real-time PCR Master Mix (TOYOBO, Osaka, Japan). […] The primers for the mouse housekeeping gene glyceraldehyde-3-phosphate dehydrogenase ([…] was performed according to the following conditions: 94 °C for 3 min, 40 cycles of denaturation at 94 °C for 30 s, annealing at 56 °C for 45 s, extension at 72 °C for 30 s, followed by a final extension at 72 °C for 10 min. The quantified fold changes in messenger RNA (mRNA) in each sample were normalized to GAPDH expression and calculated using the 2exp (-ΔΔCt) method.

[6] = tested on: N9 microglial cells
Description: as §6, §7

[7] = tested on: mouse model of postpartum depression; conditions: cited from earlier work
[8] = tested on: TNF-α; test: LPS-induced TNF-α production (ELISA); assay type: cell-based, mouse; conditions: pretreated 1 h, LPS 100 ng/mL 24 h
Description: (§4) Figure 5 Effects of TBIII (A) and t-HL (B) on LPS-induced production of pro-inflammatory cytokines in N9 microglial cells. Cells were pre-treated with TBIII and t-HL for 1 h and then stimulated with LPS (100 ng/mL) for 24 h. The protein levels of TNF-α and IL-6 determined by ELISA according to manufacturer′s instructions. PAR (10 μM) was used as a positive control. The data were obtained from three independent experiments and expressed as the means ± S.E.M. * p < 0.05, ** p < 0.01, *** p < 0.001 versus the LPS-treated group; ^## p < 0.01, ^### p < 0.001 versus the control group.
(§5) N9 cells were plated into 24-well plates (2 × 10^5 cells/well). After cells became adherent, they were pretreated with different concentrations of TBIII and t-HL for 1 h before stimulation with 100 ng/mL of LPS. The supernatants of cultured medium were collected and the production of TNF-α and IL-6 was measured after incubation for 24 h using an ELISA kit according to manufacturer′s instructions.

[9] = tested on: TNF-α; test: LPS-induced TNF-α mRNA expression (real-time PCR); assay type: cell-based, mouse; conditions: pretreated 1 h, LPS 100 ng/mL 4 h, dose-dependent
Description: as §3

[10] = tested on: IL-6; test: LPS-induced IL-6 production (ELISA); assay type: cell-based, mouse; conditions: pretreated 1 h, LPS 100 ng/mL 24 h
Description: as §4, §5

[11] = tested on: NF-κB; test: LPS-induced activation of NF-κB (Western blot, nuclear p65); assay type: cell-based, mouse; conditions: pretreated 1 h, LPS 100 ng/mL
Description: as §2, §1

[12] = MTT assay for cell viability; conditions: mouse, N9 microglial cells, % Cell Viability, 24 h, MTT, mean ± S.E.M.
Description: as §6, §7

[13] = tested on: N9 microglial cells; test: MTT assay for cell viability; conditions: at 25 and 50 μM
Description: as §6, §7

[14] = tested on: various kinds of tumor cells; parameters: method as in PMID 15971131, PMID 28548219, PMID 29393481, PMID 27897231; conditions: cited from earlier work
[15] = 25 μM compound, LPS 100 ng/mL, 24 h
[16] = 50 μM compound, LPS 100 ng/mL, 24 h
[17] = read-out: % Inhibition of NO Production, 25 μM compound, LPS 100 ng/mL, 24 h
[18] = read-out: % Inhibition of NO Production, 50 μM compound, LPS 100 ng/mL, 24 h

SMILES	viability at 24 h, 25 µM [1] [%]	viability at 24 h, 50 µM [1] [%]	Nitrite [2, 15] [µM]	Nitrite [2, 16] [µM]	inhibition at 25 µM [2, 17] [%]	inhibition at 50 µM [2, 18] [%]	other results
CC(CCC1(O)OC2CC3C4CCC5CC(OC6OC(CO)C(OC7OC(C)C(O)C(O)C7O)C(O)C6OC6OC(C)C(O)C(O)C6O)C(O)CC5(C)C4CCC3(C)C2C1C)COC1OC(CO)C(O)C(O)C1O (stereo not shown) [Compound 8, Tuberoside G]	113 ± 4.14	99.3 ± 2.46	35.05 ± 0.68	27.65 ± 0.74	-10.8 ± 2.14	13.2 ± 2.32	
COC1(CCC(C)COC2OC(CO)C(O)C(O)C2O)OC2CC3C4CC=C5CC(O)CC(OC6OC(C)C(O)C(OC7OCC(O)C(O)C7O)C6OC6OC(CO)C(O)C(O)C6O)C5(C)C4CCC3(C)C2C1C (stereo not shown) [Compound 9, Spicatoside B]	99.7 ± 3.13	94.3 ± 3.21	34.46 ± 0.41	24.20 ± 0.29	-8.22 ± 1.3	24 ± 0.9	
CC1=C(CCC(C)COC2OC(CO)C(O)C(O)C2O)OC2CC3C4CCC5CC(OC6OC(CO)C(O)C(O)C6OC6OC(CO)C(O)C(O)C6O)C(O)CC5(C)C4CCC3(C)C12 (stereo not shown) [Compound 10, Timosaponin D]	111 ± 4.39	110 ± 2.57	29.22 ± 0.60	20.78 ± 2.00	8.57 ± 1.87	34.8 ± 6.27	
CC1=C(CCC(C)COC2OC(CO)C(O)C(O)C2O)OC2CC3C4CCC5CC(OC6OC(CO)C(O)C(O)C6OC6OC(CO)C(O)C(O)C6O)CCC5(C)C4CCC3(C)C12 (stereo not shown) [Compound 11, Timosaponin BIII]	120 ± 11.8		8.55 ± 0.25	4.24 ± 0.10			iNOS protein expression [3]: significantly attenuated; phosphorylation of Akt / PI3K/Akt signaling activation [4]: attenuated; IL-6 mRNA expression [5]: significantly suppressed; cytotoxicity against N9 microglial cells (in words) [6]: non-cytotoxic; % Cell Viability ([6]; mouse, 24 h, 50 µM): 74.93 ± 3.15 %; antidepressive activity [7]: antidepressive activity; TNF-α production (protein) [8]: significantly suppressed; TNF-α mRNA expression [9]: significantly suppressed; IL-6 production (protein) [10]: significantly suppressed; % Inhibition of NO Production ([2]; 50 μM compound, LPS 100 ng/mL, 24 h, 50 µM): 86% and 86.67 ± 0.37 %; NF-κB signaling / p65 subunit into nuclei [11]: no effect
C[C@@H]1O[C@@H](O[C@H]2[C@H](OC(=O)[C@]34CCC(C)(C)C[C@H]3C3=CC[C@@H]5[C@@]6(C)C[C@H](O)[C@H](O[C@@H]7O[C@H](CO)[C@@H](O)[C@H](O)[C@H]7O)C(CO)(CO)[C@@H]6CC[C@@]5(C)[C@]3(C)C[C@H]4O)OC[C@H](O)[C@@H]2O)[C@H](O)[C@H](O)[C@H]1O[C@@H]1OC[C@@H](O)[C@H](O[C@@H]2OC[C@](O)(CO)[C@H]2O)[C@H]1O [Compound 14, Platycodin D]			28.94 ± 0.40	4.29 ± 0.59			viability at 24 h, 25 µM ([12]; 25 μM compound): 40.2 ± 9.18%; viability at 24 h, 50 µM ([12]; 50 μM compound): 17.9 ± 1.99%; cell viability reduced to [13]: ≤ 60%; cytotoxicity towards tumor cells [14]: significant cytotoxicity; inhibition at 25 µM ([2]; 25 μM compound, LPS 100 ng/mL, 24 h, read-out: % Inhibition of NO Production): 8.65 ± 2.24%; inhibition at 50 µM ([2]; 50 μM compound, LPS 100 ng/mL, 24 h, read-out: % Inhibition of NO Production): 86.5 ± 2.71%
CCC1C(OC(=O)CCC(C)COC2OC(CO)C(O)C(O)C2O)CC2C3CCC4CC(OC5OC(CO)C(O)C(O)C5OC5OC(CO)C(O)C(O)C5O)CCC4(C)C3CCC12C (stereo not shown) [Compound 19, Anemarnoside A]	124 ± 3.13	126 ± 3	23.63 ± 1.13	9.83 ± 0.30	25.2 ± 8.72	66.9 ± 2.82	
